{"source": "patent US10869844B2", "about": "“Methods for the treatment of depression” (Janssen Pharmaceutica NV, priority 2014, dated 2020)", "key": {"adult subjects with TRD [1]": {"tested_on": "adult subjects with TRD", "type": "in vivo, human", "details": "for Non-responders % / Non-responders N / Responders % (MADRS total score reduction >50% TRD2001, ≥50% TRD2002) / Responders N (MADRS total score reduction >50% TRD2001, ≥50% TRD2002): after first infusion (Day 2 TRD2001, Day 3 or 4 TRD2002)", "procedure": "Association between changes in MADRS total score from baseline and the SNP rs6265 after a single dose was evaluated in placebo subjects and active subjects using an ANCOVA model under a dominant model with baseline MADRS total score, and grouped genotype (Val/Val or Met carrier). A statistically significant result was found in active subjects (p=0.02).\nAssociation between the % responders and the SNP rs6265 after a single dose was evaluated in placebo subjects and active subjects using a logistic regression model under a dominant model with baseline MADRS total score and grouped genotype (Val/Val or Met carrier). A statistically significant result was found in active subjects (p=0.03).\nAssociation between the % remitters and the SNP rs6265 after a single dose was evaluated in placebo subjects and as well as in active subjects using a logistic regression model under a dominant model with baseline MADRS total score and grouped genotype (Val/Val or Met carrier)."}, "NMDA receptor": {"tested_on": "NMDA receptor", "details": "S-enantiomer compared with ketamine; cited from earlier work"}, "adult subjects with TRD [2]": {"tested_on": "adult subjects with TRD", "details": "for Non-remitters % / Non-remitters No. / Non-responders % / Non-responders No. / Remitters % (MADRS total score 10) / Remitters No. (MADRS total score 10) / Responders % (MADRS total score reduction >50%) / Responders No. (MADRS total score reduction >50%) / Duration of response, survival function estimate: Failure / Duration of response, survival function estimate: Survival: Met carriers"}, "[3]": {"details": "Met carriers (of 6), esketamine subjects per Day 1 randomization"}, "[4]": {"details": "DAY 02, randomized to esketamine Day 1"}, "[5]": {"details": "DAY 07, randomized to esketamine Day 1"}, "[6]": {"details": "DAY 07, randomized to placebo Day 1, esketamine from day 4 onward"}, "[7]": {"details": "DAY 17, randomized to esketamine Day 1"}, "[8]": {"details": "DAY 17, randomized to placebo Day 1, esketamine from day 4 onward"}, "[9]": {"details": "DAY 35, randomized to esketamine Day 1"}, "[10]": {"details": "DAY 35, randomized to placebo Day 1, esketamine from day 4 onward"}, "[11]": {"details": "Day 0 after Day 17, all responders (Day 17)"}, "[12]": {"details": "Day 0 after Day 17, esketamine responders (Day 17) per Day 1 randomization"}, "[13]": {"details": "Day 4 after Day 17, all responders (Day 17)"}, "[14]": {"details": "Day 4 after Day 17, esketamine responders (Day 17) per Day 1 randomization"}}, "note": "Where two headings read alike, the source gives them in different places.", "data": [{"smiles": "CN[C@]1(c2ccccc2Cl)CCCCC1=O.Cl", "note": "[Esketamine, (S)-2-(2-chlorophenyl)-2-(methylamino)cyclohexanone hydrochloride]", "values": [{"measurement": "Non-responders %", "setting": "adult subjects with TRD [1]; Met carriers", "value": 88.9, "unit": "%"}, {"measurement": "Non-responders N", "setting": "adult subjects with TRD [1]; Met carriers", "value": 8}, {"measurement": "Responders % (MADRS total score reduction >50% TRD2001, ≥50% TRD2002)", "setting": "adult subjects with TRD [1]; Met carriers", "value": 11.1, "unit": "%"}, {"measurement": "Responders N (MADRS total score reduction >50% TRD2001, ≥50% TRD2002)", "setting": "adult subjects with TRD [1]; Met carriers", "value": 1}, {"measurement": "Non-responders %", "setting": "adult subjects with TRD [1]; Val/Val", "value": 25.0, "unit": "%"}, {"measurement": "Non-responders N", "setting": "adult subjects with TRD [1]; Val/Val", "value": 2}, {"measurement": "Responders % (MADRS total score reduction >50% TRD2001, ≥50% TRD2002)", "setting": "adult subjects with TRD [1]; Val/Val", "value": 75.0, "unit": "%"}, {"measurement": "Responders N (MADRS total score reduction >50% TRD2001, ≥50% TRD2002)", "setting": "adult subjects with TRD [1]; Val/Val", "value": 6}, {"measurement": "Clinical response associated with Met allele of Val66Met rs6265", "setting": "adult subjects with TRD [1]; acute, single dose administration", "value": "smaller clinical response"}, {"measurement": "Potency or affinity for the NMDA receptor", "setting": "NMDA receptor", "value": "higher potency or affinity"}, {"measurement": "Maintenance of remission, Val/Val vs Met carriers", "setting": "adult subjects with TRD [2]; Day 35", "value": "Remission was maintained longer in Val/Val than in Met carriers"}, {"measurement": "Subjects who remained well, number", "setting": "adult subjects with TRD [2]; Met carrier group, at Day 21, from 6", "value": 3}, {"measurement": "Day 17 responders who maintained response status up to Day 35, %", "setting": "adult subjects with TRD [2]; [3]", "value": 33.3, "unit": "%"}, {"measurement": "Day 17 responders who maintained response status up to Day 35, number", "setting": "adult subjects with TRD [2]; [3]", "value": 2}, {"measurement": "Non-remitters %", "setting": "adult subjects with TRD [2]; [4]", "value": 88.9, "unit": "%"}, {"measurement": "Non-remitters No.", "setting": "adult subjects with TRD [2]; [4]", "value": 8}, {"measurement": "Non-responders %", "setting": "adult subjects with TRD [2]; [4]", "value": 88.9, "unit": "%"}, {"measurement": "Non-responders No.", "setting": "adult subjects with TRD [2]; [4]", "value": 8}, {"measurement": "Remitters % (MADRS total score 10)", "setting": "adult subjects with TRD [2]; [4]", "value": 11.1, "unit": "%"}, {"measurement": "Remitters No. (MADRS total score 10)", "setting": "adult subjects with TRD [2]; [4]", "value": 1}, {"measurement": "Responders % (MADRS total score reduction >50%)", "setting": "adult subjects with TRD [2]; [4]", "value": 11.1, "unit": "%"}, {"measurement": "Responders No. (MADRS total score reduction >50%)", "setting": "adult subjects with TRD [2]; [4]", "value": 1}, {"measurement": "Non-remitters %", "setting": "adult subjects with TRD [2]; [5]", "value": 77.8, "unit": "%"}, {"measurement": "Non-remitters No.", "setting": "adult subjects with TRD [2]; [5]", "value": 7}, {"measurement": "Non-responders %", "setting": "adult subjects with TRD [2]; [5]", "value": 66.7, "unit": "%"}, {"measurement": "Non-responders No.", "setting": "adult subjects with TRD [2]; [5]", "value": 6}, {"measurement": "Remitters % (MADRS total score 10)", "setting": "adult subjects with TRD [2]; [5]", "value": 22.2, "unit": "%"}, {"measurement": "Remitters No. (MADRS total score 10)", "setting": "adult subjects with TRD [2]; [5]", "value": 2}, {"measurement": "Responders % (MADRS total score reduction >50%)", "setting": "adult subjects with TRD [2]; [5]", "value": 33.3, "unit": "%"}, {"measurement": "Responders No. (MADRS total score reduction >50%)", "setting": "adult subjects with TRD [2]; [5]", "value": 3}, {"measurement": "Non-remitters %", "setting": "adult subjects with TRD [2]; [6]", "value": 100.0, "unit": "%"}, {"measurement": "Non-remitters No.", "setting": "adult subjects with TRD [2]; [6]", "value": 1}, {"measurement": "Non-responders No.", "setting": "adult subjects with TRD [2]; [6]", "value": 0}, {"measurement": "Remitters No. (MADRS total score 10)", "setting": "adult subjects with TRD [2]; [6]", "value": 0}, {"measurement": "Responders % (MADRS total score reduction >50%)", "setting": "adult subjects with TRD [2]; [6]", "value": 100.0, "unit": "%"}, {"measurement": "Responders No. (MADRS total score reduction >50%)", "setting": "adult subjects with TRD [2]; [6]", "value": 1}, {"measurement": "Non-remitters %", "setting": "adult subjects with TRD [2]; [7]", "value": 77.8, "unit": "%"}, {"measurement": "Non-remitters No.", "setting": "adult subjects with TRD [2]; [7]", "value": 7}, {"measurement": "Non-responders %", "setting": "adult subjects with TRD [2]; [7]", "value": 33.3, "unit": "%"}, {"measurement": "Non-responders No.", "setting": "adult subjects with TRD [2]; [7]", "value": 3}, {"measurement": "Remitters % (MADRS total score 10)", "setting": "adult subjects with TRD [2]; [7]", "value": 22.2, "unit": "%"}, {"measurement": "Remitters No. (MADRS total score 10)", "setting": "adult subjects with TRD [2]; [7]", "value": 2}, {"measurement": "Responders % (MADRS total score reduction >50%)", "setting": "adult subjects with TRD [2]; [7]", "value": 66.7, "unit": "%"}, {"measurement": "Responders No. (MADRS total score reduction >50%)", "setting": "adult subjects with TRD [2]; [7]", "value": 6}, {"measurement": "Non-remitters No.", "setting": "adult subjects with TRD [2]; [8]", "value": 0}, {"measurement": "Non-responders No.", "setting": "adult subjects with TRD [2]; [8]", "value": 0}, {"measurement": "Remitters % (MADRS total score 10)", "setting": "adult subjects with TRD [2]; [8]", "value": 100.0, "unit": "%"}, {"measurement": "Remitters No. (MADRS total score 10)", "setting": "adult subjects with TRD [2]; [8]", "value": 1}, {"measurement": "Responders % (MADRS total score reduction >50%)", "setting": "adult subjects with TRD [2]; [8]", "value": 100.0, "unit": "%"}, {"measurement": "Responders No. (MADRS total score reduction >50%)", "setting": "adult subjects with TRD [2]; [8]", "value": 1}, {"measurement": "Non-remitters %", "setting": "adult subjects with TRD [2]; [9]", "value": 77.8, "unit": "%"}, {"measurement": "Non-remitters No.", "setting": "adult subjects with TRD [2]; [9]", "value": 7}, {"measurement": "Non-responders %", "setting": "adult subjects with TRD [2]; [9]", "value": 55.6, "unit": "%"}, {"measurement": "Non-responders No.", "setting": "adult subjects with TRD [2]; [9]", "value": 5}, {"measurement": "Remitters % (MADRS total score 10)", "setting": "adult subjects with TRD [2]; [9]", "value": 22.2, "unit": "%"}, {"measurement": "Remitters No. (MADRS total score 10)", "setting": "adult subjects with TRD [2]; [9]", "value": 2}, {"measurement": "Responders % (MADRS total score reduction >50%)", "setting": "adult subjects with TRD [2]; [9]", "value": 44.4, "unit": "%"}, {"measurement": "Responders No. (MADRS total score reduction >50%)", "setting": "adult subjects with TRD [2]; [9]", "value": 4}, {"measurement": "Non-remitters No.", "setting": "adult subjects with TRD [2]; [10]", "value": 0}, {"measurement": "Non-responders No.", "setting": "adult subjects with TRD [2]; [10]", "value": 0}, {"measurement": "Remitters % (MADRS total score 10)", "setting": "adult subjects with TRD [2]; [10]", "value": 100.0, "unit": "%"}, {"measurement": "Remitters No. (MADRS total score 10)", "setting": "adult subjects with TRD [2]; [10]", "value": 1}, {"measurement": "Responders % (MADRS total score reduction >50%)", "setting": "adult subjects with TRD [2]; [10]", "value": 100.0, "unit": "%"}, {"measurement": "Responders No. (MADRS total score reduction >50%)", "setting": "adult subjects with TRD [2]; [10]", "value": 1}, {"measurement": "Duration of response, survival function estimate: Failure", "setting": "adult subjects with TRD [2]; [11]", "value": 0}, {"measurement": "Duration of response, survival function estimate: Survival", "setting": "adult subjects with TRD [2]; [11]", "value": 1.0000}, {"measurement": "Duration of response, survival function estimate: Failure", "setting": "adult subjects with TRD [2]; [12]", "value": 0}, {"measurement": "Duration of response, survival function estimate: Survival", "setting": "adult subjects with TRD [2]; [12]", "value": 1.0000}, {"measurement": "Duration of response, survival function estimate: Failure", "setting": "adult subjects with TRD [2]; [13]", "value": 0.4286}, {"measurement": "Duration of response, survival function estimate: Survival", "setting": "adult subjects with TRD [2]; [13]", "value": 0.5714}, {"measurement": "Duration of response, survival function estimate: Failure", "setting": "adult subjects with TRD [2]; [14]", "value": 0.5000}, {"measurement": "Duration of response, survival function estimate: Survival", "setting": "adult subjects with TRD [2]; [14]", "value": 0.5000}]}]}
